Measurements as given in ChEMBL document CHEMBL1201862, “PubChem BioAssay data set” (2004).
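How tested: cells in 96-well plates exposed to compound for 48 hours at five concentrations. Abbreviation: GI50, concentration required for 50% inhibition of growth.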 Activity calls are given as the source filed them. Rule as the data show it: active = GI50 up to about 1.1 µM and inactive = higher.

Key:
Experiment in all cases: growth of human tumour cells (NCI), 48 h
SK-MEL-2 = test system: SK-MEL-2
M19-MEL = test system: M19-MEL
U-251 = test system: U-251
NCI-H522 = test system: NCI-H522
SNB-78 = test system: SNB-78
RPMI-8226 = test system: RPMI-8226
OVCAR-4 = test system: OVCAR-4
IGROV-1 = test system: IGROV-1
HL-60 = test system: HL-60
SK-MEL-5 = test system: SK-MEL-5
A549 = test system: A549
K562 = test system: K562
EKVX = test system: EKVX
SF-539 = test system: SF-539
Malme-3M = test system: Malme-3M
HCC 2998 = test system: HCC 2998
SK-OV-3 = test system: SK-OV-3
Hs-578T = test system: Hs-578T
DU-145 = test system: DU-145
XF498 = test system: XF498

Compound | GI50 (SK-MEL-2) | GI50 (M19-MEL) | GI50 (U-251) | GI50 (NCI-H522) | GI50 (SNB-78) | GI50 (RPMI-8226) | GI50 (OVCAR-4) | GI50 (IGROV-1) | GI50 (HL-60) | GI50 (SK-MEL-5) | GI50 (A549) | GI50 (K562) | GI50 (EKVX) | GI50 (SF-539) | GI50 (Malme-3M) | GI50 (HCC 2998) | GI50 (SK-OV-3) | GI50 (Hs-578T) | GI50 (DU-145) | GI50 (XF498)
CC(=O)OC1CC2C(C)(C)C(=O)C=C[C@]2(C)C2CCC3(C)C(c4ccoc4)[C@@H](O)[C@H]4O[C@]43[C@]12C (some centres not stated) | 18.9 µM (inactive) | 18.7 µM (inactive) | 14.6 µM (inactive) | 14.6 µM (inactive) | 25.6 µM (inactive) | 18.4 µM (inactive) | 19.7 µM (inactive) | 24 µM (inactive) | 24.9 µM (inactive) | 17.5 µM (inactive) | 36 µM (inactive) | 16.4 µM (inactive) | 30.2 µM (inactive) | 17.9 µM (inactive) | 24.2 µM (inactive) | 16.1 µM (inactive) | 20.7 µM (inactive) |  |  | 
COC(=O)C1Cc2c([nH]c3ccccc23)C(C2CCCCC2)N1 (configuration not stated) | > 100 µM (inactive) | > 100 µM (inactive) | > 100 µM (inactive) | > 100 µM (inactive) |  |  | > 100 µM (inactive) | 83.9 µM (inactive) | > 100 µM (inactive) | 52.7 µM (inactive) | > 100 µM (inactive) | > 100 µM (inactive) | > 100 µM (inactive) | > 100 µM (inactive) | > 100 µM (inactive) | > 100 µM (inactive) | > 100 µM (inactive) |  |  | 
COc1cc2c(cc1OC)C1C=NC(C(=O)O)(C2)c2ccccc21 (configuration not stated) |  | > 100 µM (inactive) | > 100 µM (inactive) | > 100 µM (inactive) | > 100 µM (inactive) | > 100 µM (inactive) | > 100 µM (inactive) | > 100 µM (inactive) | 26.4 µM (inactive) | > 100 µM (inactive) | > 100 µM (inactive) | 23 µM (inactive) | > 100 µM (inactive) | > 100 µM (inactive) | > 100 µM (inactive) | > 10 µM (inactive) | > 100 µM (inactive) |  |  | 
O=C1/C(=C/c2cc(O)c(O)c(O)c2)Oc2cc(O)cc(OC3OC(CO)C(O)C(O)C3O)c21 (configuration not stated) | 16.2 µM (inactive) | 18 µM (inactive) | > 10 µM (inactive) |  | 19.4 µM (inactive) | 20.2 µM (inactive) | 2.06 µM (inactive) | 36.2 µM (inactive) | 15.6 µM (inactive) | 13.3 µM (inactive) | 32.4 µM (inactive) | 16.9 µM (inactive) | 43.6 µM (inactive) | > 100 µM (inactive) |  | 39.2 µM (inactive) | 46.1 µM (inactive) |  |  | 
C[C@@H]1OCC(O)C([C@H]2OC(c3ccccc3)=N[C@H]2CO)O1 (some centres not stated) | > 100 µM (inactive) |  | > 100 µM (inactive) | > 100 µM (inactive) |  | > 100 µM (inactive) | > 100 µM (inactive) | > 100 µM (inactive) | > 100 µM (inactive) | > 100 µM (inactive) | > 100 µM (inactive) | > 100 µM (inactive) | > 100 µM (inactive) | > 100 µM (inactive) | > 100 µM (inactive) | > 100 µM (inactive) | > 100 µM (inactive) | > 100 µM (inactive) | > 100 µM (inactive) | 
O=C(CC1(O)C(=O)Nc2ccc(Br)cc21)c1ccc(Cl)cc1 (configuration not stated) | > 100 µM (inactive) |  | 27.6 µM (inactive) | > 100 µM (inactive) | 83.8 µM (inactive) | 42.3 µM (inactive) | 69.7 µM (inactive) | > 100 µM (inactive) | > 10 µM (inactive) | > 100 µM (inactive) | > 100 µM (inactive) | 58.7 µM (inactive) | > 100 µM (inactive) | 50.7 µM (inactive) | > 100 µM (inactive) |  | > 100 µM (inactive) |  |  | 
CCOC(=O)C1(C/C=C(/C)Cl)CCCC1=O (configuration not stated) | > 100 µM (inactive) | > 100 µM (inactive) | > 100 µM (inactive) | > 100 µM (inactive) |  | 26.9 µM (inactive) | > 100 µM (inactive) | > 100 µM (inactive) | 86.5 µM (inactive) | > 100 µM (inactive) | > 100 µM (inactive) | > 100 µM (inactive) | > 100 µM (inactive) | > 100 µM (inactive) | > 100 µM (inactive) |  | > 100 µM (inactive) |  |  | > 100 µM (inactive)
NC(CCc1nc(-c2ccccc2)cs1)C(=O)O (configuration not stated) |  | > 100 µM (inactive) | > 100 µM (inactive) | > 100 µM (inactive) | > 100 µM (inactive) | > 100 µM (inactive) |  | > 100 µM (inactive) | > 100 µM (inactive) | > 100 µM (inactive) | > 100 µM (inactive) | > 100 µM (inactive) | > 100 µM (inactive) | > 100 µM (inactive) | > 100 µM (inactive) | > 100 µM (inactive) | > 100 µM (inactive) |  |  | 
CC(=O)/C=C1\CC(=O)Nc2ccccc2N1 | > 100 µM (inactive) |  | > 100 µM (inactive) |  | > 100 µM (inactive) | > 100 µM (inactive) | > 100 µM (inactive) | > 100 µM (inactive) | > 100 µM (inactive) | > 100 µM (inactive) | > 100 µM (inactive) | > 100 µM (inactive) | > 100 µM (inactive) | > 100 µM (inactive) | > 100 µM (inactive) | > 100 µM (inactive) | > 100 µM (inactive) |  |  | 
CN(C)CCCNC(=O)CNC(=O)c1cc(NC(=O)c2cc(NC(=O)c3cc(NC(=O)CCNC(=O)c4cc(NC(=O)c5cc(NC(=O)c6nccn6C)cn5C)cn4C)cn3C)cn2C)cn1C | > 100 µM (inactive) |  | > 100 µM (inactive) | > 100 µM (inactive) |  | > 100 µM (inactive) | > 100 µM (inactive) | > 100 µM (inactive) | 43 µM (inactive) | > 100 µM (inactive) | > 100 µM (inactive) | 59.4 µM (inactive) | > 100 µM (inactive) | > 100 µM (inactive) | > 100 µM (inactive) | > 100 µM (inactive) | > 100 µM (inactive) | > 100 µM (inactive) | > 100 µM (inactive) | 
C=CCc1cc(-c2cc(CC=C)c(O)c(CNCCCl)c2)cc(CNCCCl)c1O | 19.2 µM (inactive) | 17.1 µM (inactive) | 16.6 µM (inactive) | 16.9 µM (inactive) | 39.3 µM (inactive) | 21.4 µM (inactive) | 22.9 µM (inactive) | 23.6 µM (inactive) | 17.3 µM (inactive) | 15.3 µM (inactive) | 24.3 µM (inactive) | 17.8 µM (inactive) |  |  | 22.2 µM (inactive) | 17.3 µM (inactive) |  |  |  | 
CC[P+]1(c2ccccc2)[C@@H](C)CC[C@@H]1C | > 100 µM (inactive) |  | 40.5 µM (inactive) | > 100 µM (inactive) |  | > 100 µM (inactive) | > 100 µM (inactive) | > 100 µM (inactive) | > 100 µM (inactive) | 65.2 µM (inactive) | > 100 µM (inactive) | 96.2 µM (inactive) | > 100 µM (inactive) | > 100 µM (inactive) | 97.1 µM (inactive) | > 100 µM (inactive) | > 100 µM (inactive) | > 100 µM (inactive) | > 100 µM (inactive) | 
CC(C)=CC1CC(C)C2(CCC3(C)CC4C(C(=O)CC4(C)O)/C(C=O)=C\CC32)O1 (configuration not stated) | 0.144 µM (active) |  | 0.0735 µM (active) | 0.028 µM (active) |  | 0.0255 µM (active) | 0.0356 µM (active) | 0.144 µM (active) | < 0.0173 µM (active) | 0.216 µM (active) | 0.0685 µM (active) | 0.0614 µM (active) | 0.154 µM (active) | 0.0933 µM (active) | 0.131 µM (active) | 0.178 µM (active) | 0.148 µM (active) | 0.13 µM (active) | 0.129 µM (active) | 
CC(=O)c1cc2c(s1)C(=O)c1ccsc1C2=O | 0.621 µM (active) |  | 0.233 µM (active) | 0.16 µM (active) |  | 3.85 µM (inactive) | 1.26 µM (inactive) | 1.75 µM (inactive) | 0.0442 µM (active) | 0.0559 µM (active) | 2.05 µM (inactive) | 0.407 µM (active) | 1.87 µM (inactive) | 0.27 µM (active) | 0.146 µM (active) | 1.74 µM (inactive) | 1.87 µM (inactive) | 0.158 µM (active) | 0.309 µM (active) | 
Cc1nc2c3c(ccc2nc1O)C(=O)c1ccccc1C3=O |  | > 100 µM (inactive) | 54.1 µM (inactive) | 7.18 µM (inactive) |  |  | > 100 µM (inactive) | 42.9 µM (inactive) | > 100 µM (inactive) | > 100 µM (inactive) | 52 µM (inactive) | > 100 µM (inactive) | 23.1 µM (inactive) | 40.8 µM (inactive) | > 100 µM (inactive) | > 100 µM (inactive) | 24.5 µM (inactive) |  |  | > 100 µM (inactive)
COc1ccc(C(C#N)NC23CC4CC(CC(C4)C2)C3)cc1 (configuration not stated) | > 100 µM (inactive) |  | > 100 µM (inactive) | > 100 µM (inactive) |  | > 100 µM (inactive) | > 100 µM (inactive) | > 100 µM (inactive) | 88.5 µM (inactive) | > 100 µM (inactive) | > 100 µM (inactive) | > 100 µM (inactive) | > 100 µM (inactive) | > 100 µM (inactive) | > 100 µM (inactive) | > 100 µM (inactive) | > 100 µM (inactive) | > 100 µM (inactive) | > 100 µM (inactive) | 
CC1=CC(=O)N(n2c(-c3ccccc3)n[nH]c2=O)C1=O | > 100 µM (inactive) |  | > 100 µM (inactive) | > 100 µM (inactive) |  | > 100 µM (inactive) | > 100 µM (inactive) | > 100 µM (inactive) | > 100 µM (inactive) | > 100 µM (inactive) | > 100 µM (inactive) | > 100 µM (inactive) | > 100 µM (inactive) | > 100 µM (inactive) | > 100 µM (inactive) | > 100 µM (inactive) | > 100 µM (inactive) | > 100 µM (inactive) | > 100 µM (inactive) | 
